For series [1] the following is noted: cited from earlier work.
Series [2] relates to rheumatoid arthritis synovial fibroblasts stimulated with IL-1, IL-6 and IL-6R. The series can be described thus: IL-7 gene expression assay in synovial fibroblasts. The class given is cell-based, human. The protocol:
(§1) IL-7 Gene Expression Assay: […] Normal primary human chondrocytes and rheumatoid arthritis synovial fibroblasts purchased from Asterand (Detroit, Mich.) were thawed into a T-75 flask and cultured for 2-3 weeks to reach confluency. The media was 20% premium non-heat inactivated FBS-DMEM/F-12 (Invitrogen 11330-032)+1% pen/strep and 1% L-Glutamine. […] Upon reaching 90% confluency (usually in 1-2 days post-plating), the cells were serum starved for 20 hours by replacing the complete media with 2 ml serum-free media. The cells were treated with the test compounds for 1 hour at 37° C. […] The cells were then washed with cold PBS. Ribonucleic acid (RNA) was isolated by adding 600 μl RLT lysis buffer (Qiagen RNAEasy kit cat#74104), passing the cells through the Qiashredder (Qiagen cat#23800) followed by RNA isolation according to manufacturers' instructions (Qiagen RNAEasy kit). Purified RNA was reverse transcribed into cDNA with thermal cycler for real-time reverse transcriptase polymerase chain reaction (RTPCR) analysis. Interleukin-7 gene expression assays were carried out using the 7500 Real Time PCR system. A GAPDH gene expression assay control was run for each sample and was used as a normalization control.

Series [3] can be described thus: Pharmacokinetic data for study drugs. The settings on record: human, in vivo; for concentration at 7 day: read-out: Cmin. Also noted: species or system RA patients.
The subject of series [4] is Normal human osteoblast cells (nHOST). The series can be described thus: Osteoblast production of RANKL and OPG (ELISA). The class given is cell-based. The settings on record: 7 days with 10 nM dexamethasone and 10 nM Vitamin D. The protocol: Normal human osteoblast cells (nHOST, source: Lonza) were plated in 6 well plates and incubated overnight for cell attachment. Cells were treated for 7 days with Compound A and with 10 nM dexamethasone and 10 nM Vitamin D. Compound and media was refreshed every 3-4 days. On Day 7 supernatent was collected for RANKL and OPG by ELISA.
On the technique in general: ELISA stands for enzyme-linked immunosorbent assay.

Series [5] has as its system stimulated primary human normal chondrocytes. The series can be described thus: Cell surface protein expression assay (flow cytometry). The class given is cell-based. The method, then: Cell Surface Protein Expression Assay: Normal primary human chondrocyte were thawed into a T-75 flask and grown for 2-3 weeks to reach confluency in 20% premium non-heat inactivated FBS-DMEM/F-12 (Invitrogen 11330-032)+1% pen/strep and 1% L-Glutamine. The cells were plated (1.0×10^6 cells/10 ml of complete media) in a 100×20 mm tissue culture plate. The next day, the media was replaced with 10 ml serum-free media for 20 min to serum starve the cells. Compound A (0.1-10 μM) was added for 1 hour at 37° C. (0.25% final DMSO). In addition, cytokines IL-1β (10 ng/ml), IL-6 (10 ng/ml), and IL-6R (20 ng/ml) were added and the cells continued incubation overnight (18 hours) at 37° C. The cells were harvested by a non-enzymatic cell dissociation solution (Millipore S-004-B) then washed once in cold stain buffer (BD Pharmigen 554656) at 300×g for 5 minutes. The cells were resuspended and aliquoted into three 5 ml round bottom tubes plus two additional aliquots for control. The cells were washed again in cold stain buffer at 300×g for 5 minutes. The cells were stained with PE mouse anti-human: CD54 (ICAM-1) (BD Pharmigen 555511) and Integrin αVβ3 anti (Millipore MAB1976H). The samples were vortexed and incubated for 30 minutes at 4° C. while being protected from light. […] After a final wash, 500 μl of stain buffer was added to each sample and analyzed by flow cytometry.
Background: In flow cytometry, cells or beads pass a laser one at a time.

Series [6] deals with mAB/LPS-induced experimental arthritis. The series can be described thus: Antibody-induced arthritis in mice (mAb/LPS model, 11 treatment days).
Series [7] deals with collagen antibody-induced arthritis. The series can be described thus: Mouse model of collagen antibody-induced arthritis (CAIA). The class given is in vivo, Male BALB/c mice. The method, then:
(§2) Cytokine and chemokine protein levels were analyzed by cytometric bead array on a Luminex 100. CAIA model: […] Compound A and ETN were administered once daily on days 3-13. […] Both hind paws (left and right) of each animal were examined for signs of arthritogenic responses in blinded fashion. Arthritic reactions were scored and recorded according to a 0-4 scale in ascending order of severity. Hind paw thickness was measured in mm using a Mitutoyo Electronic Digital Caliper.

The subject of series [8] is mAB/LPS-induced experimental arthritis. The series can be described thus: Histopathological evaluation of the tibiotarsal joint of arthritic mice. In kind it is in vivo. Also noted: key to Fibrin deposition / Inflammatory infiltration in the synovial membrane / Pannus formation (reflected by proliferation of granulation tissue) / Cartilage disruption / Hyaline cartilage destruction (reflected by resorption/erosion in the cartilage) / Subchondral bone destruction (reflected by resorption/erosion by osteoclasts and loss of bone) / Overall assessment: “determined as arthritis” / Synovial hyperplasia / Synovial villus formation: 0=unremarkable; 1=minimal; 2=mild; 3=moderate; 4=marked. The settings on record: 25 mg/kg. The protocol: Compound A), total 16 animals were tested with Vehicle Control or 25 mg/kg of (+) isomer for histopathological evaluation. […] Each limb from the middle of the tibia and distally, to include the ankle joint, i.e., the joint between the leg and foot (tibial-tarsus joint), was trimmed mid-longitudinally, and both halves were embedded in paraffin and slides of 6 micron thickness were cut and stained by hematoxylin and eosin. Histopathological changes in the joints were described and scored, using semiquantitative grading of five grades (0-4), taking into consideration the severity of the changes (0=unremarkable, 1=minimal, 2=mild, 3=moderate, 4=marked). […] All typical ranges of changes characteristically seen in this arthritis were noted.

The test system is the same in series [9]. In words: mAB/LPS-induced experimental murine arthritogenic model, paw thickness (five treatment days). In kind it is in vivo, BALB/c male mice. The method, then:
The mice were administered with 1, 5 and 25 mg/kg once daily oral (PO) gavage throughout five successive treatment days.

Series [10] deals with normal primary human chondrocytes stimulated with IL-1, IL-6 and IL-6R. In words: IL-7 gene expression assay in chondrocytes. The class given is cell-based. The method, then: as §1
The subject of another series is Human bone marrow cells. In words: Osteoclastogenesis induced by dexamethasone and Vitamin D. The class given is cell-based. The settings on record: 10 nM dexamethasone and 10 nM Vitamin D; day 7. The method, then:
Human bone marrow cells were treated with Compound A and with 10 nM dexamethasone and 10 nM Vitamin D to differentiate cells into osteoclasts. Fresh media and Compound A were added every 3 days. At day 7 supernatant was collected and adherent cells were isolated to obtain RNA. Day 7 cells were stained with TRAPS and the number of osteoclasts was counted.

Series [11] relates to Human peripheral blood total T cells stimulated with anti-CD3 antibody. In words: Cytokine and chemokine production by anti-CD3-stimulated T cells (cytometric bead array, Luminex 100). In kind it is cell-based. The method, then: as §2
Where [12] appears, read: tibiotarsal joint, grade 0-4, individual animals No. 25-32.

Where “and” joins values, the source holds several entries; their conditions need not be identical. Equal entries are not always repeated. Entries after “also recorded” stand apart in the source; their conditions may differ. Where two headings read alike, the source gives them in different places.

For orientation: Cmax means the maximum level reached in the sampled fluid or tissue. For the molecule `CN(Cc1cnc2nc(N)nc(N)c2n1)c1ccc(C(=O)N[C@@H](CCC(=O)O)C(=O)O)cc1` [MTX, methotrexate], the “Cmax” value in [1] (Depending on RA patients) is 300 to 1040 ng/mL. For the same molecule, the “maximum plasma concentration (Cmax)” value in [1] was 400 ng/mL. In addition, the IL-7 gene expression result in series [2] (comparators) is “no significant effects”.

For `CCOc1cc([C@@H](CS(C)(=O)=O)N2Cc3cccc(NC(=O)C4CC4)c3C2=O)ccc1OC` [Compound B, (S)-N-(2-(1-(3-ethoxy-4-methoxyphenyl)-2-(methylsulfonyl)ethyl)-3-oxoisoindolin-4-yl)cyclopropanecarboxamide], in series [3] (200-mg day-7), the Cmax worked out at 195 ng/mL and the concentration at 7 day was 40 ng/mL.

As to `CCOc1cc([C@@H](CS(C)(=O)=O)N2C(=O)c3cccc(NC(C)=O)c3C2=O)ccc1OC` [Compound A, (S)-N-(2-(1-(3-ethoxy-4-methoxyphenyl)-2-(methylsulfonyl)ethyl)-1,3-dioxoisoindolin-4-yl)acetamide], the sRANKL result in series [4] (1 μM and 10 μM) was “significant decrease”. In series [4], the OPG entry was “increase” and the RANKL/OPG ratio result was “significantly inhibit”. In series [5], the “alpha-v-beta-3 (αvβ3) integrin expression” value is “inhibited expression” and the “intercellular adhesion molecule 1 (ICAM-1) expression” value is “inhibited expression”. In addition, in [3] (20-mg, day-7), the maximum concentration (Cmax) is 419 ng/mL and the concentration at 7 day stood at 4.9 ng/mL. Moreover, in series [6] (25 mg/kg, vs. Vehicle Control on Days 9, 11 and 14, respectively), the “mean group arthritogenic scoring value of both hind paws” value was “statistically to extremely significant reductions (p<0.05, p<0.01, p<0.001)”. Besides, the treatment-related adverse reactions result in series [6] (5 and 25 mg/kg PO once daily, 11 days, 14-day observation period) is “No obvious treatment-related adverse reactions”. Moreover, the “mean group percentage change in hind paw thickness vs. arthritis induction initiation (Day 0)” value in series [6] (5 or 25 mg/kg, vs. Vehicle Control, Days 7, 9, 11 & 14) is “highly significantly lower (P<0.01)”. The “arthritis by histopathological analysis” value in series [7] (25 mg/kg) is given as “practically no existing arthritis”. The “hind-paw arthritic reaction scores and thickness” value in series [7] (5 and 25 mg/kg orally once daily on days 3-13) was “significantly reduced (p<0.01)”. Further, the “synovial hyperplasia, synovial villus formation, fibrin deposition, inflammatory infiltration in the synovial membrane, pannus formation, cartilage disruption, and subchondral bone destruction” value in series [7] (high dose) was “inhibited”. Besides, the “arthritis by histopathological evaluation” value in [8] (all samples from treated animals) is “practically no existing arthritis”. Besides, in series [8] (setting [12]), the Cartilage disruption worked out at 0; the Fibrin deposition is 0 (6×) and 1 (2×); the “Hyaline cartilage destruction (reflected by resorption/erosion in the cartilage)” value amounted to 0; the “Inflammatory infiltration in the synovial membrane” value was 0. In addition, in [8] (setting [12]), the “Overall assessment: “determined as arthritis”” value was determined as 0; the “Pannus formation (reflected by proliferation of granulation tissue)” value amounted to 0; the “Subchondral bone destruction (reflected by resorption/erosion by osteoclasts and loss of bone)” value was determined as 0; the Synovial hyperplasia is given as 0. In series [8] (setting [12]), this molecule showed a Synovial villus formation of 0. The “hind paw thickness (suppression of paw swelling)” value in [9] (5 mg/kg PO once daily, limited to Day 9, vs. Vehicle Control) is “A lesser extent (p<0.05 vs. Vehicle Control)”. Further, the “hind paw thickness (suppression of paw swelling)” value in series [9] (25 mg/kg PO once daily, vs. Vehicle Control) is “highly statistically significant (p<0.01 vs. Vehicle Control) and constant suppression of paw swelling; also recorded: statistically significant reduction of paw swelling”. Moreover, the IL-7 gene expression result in series [10] (0.1-10 μM, normal primary human chondrocytes) is “significantly inhibited”. The “inhibition of IL-7 gene expression compared with methotrexate and etanercept” value in [10] (dose ranges encompassing the respective Cmax of MTX and ETC) is “more effective inhibitor of IL-7 gene expression than methotrexate and etanercept”. In the series on Human bone marrow cells, the “osteoclast formation (osteoclastogenesis)” value is listed as “inhibit osteoclast formation; also recorded: significantly inhibits osteoclastogenesis”. Moreover, the IL-7 gene expression entry in series [2] (0.1-10 μM) is recorded as “significantly inhibited”. For the same molecule, the “IC50s, production of all T cell cytokines and chemokines measured (IL-2, IL-4, IL-13, IFN-γ, TNF-α, CXCL10, CCL3, and CCL4)” value in [11] (anti-CD3 antibody, 2 days, range over all analytes) was 0.015 to 0.36 µg/mL. The “inhibition of IL-2, IL-4, IL-13, IFN-γ, TNF-α, CXCL10, CCL3, and CCL4” value in [11] (human T cells) is “resulted in inhibition”.

For the molecule etanercept, the “mean group arthritogenic scoring value of both hind paws” value in [6] (6.25 mg/kg, p<0.001 vs. Vehicle Control, study days 7, 9, 11 and 14) is listed as “highly to extremely statistically lower (p<0.01 & p<0.001, respectively)”. In addition, the “Cmax (ng/ml)” value in series [1] (RA patient 6 months 25-mg biweekly) is recorded as 3000 (1700 to 5600) ng/ml. Also, the “Cmax (ng/ml)” value in series [1] (RA patients 50-mg weekly) is “weekly: 2400 ± 1500 ng/ml”. In addition, the “Cmin” value in [1] (RA patients) was 1200 ± 700 ng/mL. Also, the “maximum plasma concentration (Cmax)” value in series [1] was 1600 ng/mL. Also, the Bioavailability in series [1] (in vivo) is listed as 76%. In addition, the IL-7 gene expression result in [2] (comparators) was “no significant effects”. Moreover, in series [11] (anti-CD3 antibody, 2 days), the “IC50, IL-13 and IP-10” value is 0.016 to 0.062 µg/mL; the “IC50, TNF-α” value came out at 0.0015 µg/mL.

The record behind these values is US9272035B2, “Methods and compositions using PDE4 inhibitors for the treatment and management of autoimmune and inflammatory diseases” (Celgene Corporation, priority 2011, dated 2016).
